Test results taken from ChEMBL document CHEMBL1201862, “PubChem BioAssay data set” (2004).
The source made the active and inactive calls. Rule as the data show it, for most assays here: actives have a measured EC50 and inactives only a lower limit.

Tests used:
[1] = Luminescence Cell-Based Dose Response HTS to Identify Activators of Luciferase Translation or Activity in H4 […] Cells. [Related pubchem assays: 1829 (Project Summary), 1814 (Primary HTS)]; assay type: functional
[2] = Luminescence Cell-Based Dose Confirmation HTS to Identify Activators of 5'UTR Stem-Loop Driven Alpha-Synuclein mRNA Translation in H4 Neuroglioblastoma Cells. [Related pubchem assays: 1829 (Project Summary), 1814 (Primary HTS)]; assay type: functional
[3] = tested on: H4; assay: Luminescence Cell-Based Dose Response HTS to Identify Activators of 5'UTR Stem-Loop Driven Prion Protein mRNA Translation in H4 Neuroglioblastoma Cells. [Related pubchem assays: 1829 (Project Summary), 1814 (Primary HTS)]; assay type: functional; details: Homo sapiens
[4] = Trypanosoma cruzi growth suppression in host cells – NIH3T3 host cells, beta-gal luminescence, confirmation (AID 2044); assay type: functional, cell-based;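 also: intracellular parasites grown in NIH/3T3 mouse fibroblasts as host cells; luminescent beta-galactosidase reporter signal from transgenic T. cruzi replicating inside host cells; inhibitors lower the luminescence signal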
[5] = NIH3T3 cell viability loss – ATP luminescence, mouse fibroblasts, counter-screen, dose response (AID 2010); assay type: functional, cell-based;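 also: cells exposed to compound for about 90 hours before reading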
[6] = target: Cytochrome P450 3A4 (Homo sapiens, UniProt P08684);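 also: CYP3A4 tested as one member of a cytochrome P450 panel screen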
[7] = target: T1, Cytochrome P450 1A2 (Homo sapiens, UniProt P05177);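 also: PubChem cytochrome P450 panel assay, CYP1A2 panel member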
T1 sequence (P05177 whole entry): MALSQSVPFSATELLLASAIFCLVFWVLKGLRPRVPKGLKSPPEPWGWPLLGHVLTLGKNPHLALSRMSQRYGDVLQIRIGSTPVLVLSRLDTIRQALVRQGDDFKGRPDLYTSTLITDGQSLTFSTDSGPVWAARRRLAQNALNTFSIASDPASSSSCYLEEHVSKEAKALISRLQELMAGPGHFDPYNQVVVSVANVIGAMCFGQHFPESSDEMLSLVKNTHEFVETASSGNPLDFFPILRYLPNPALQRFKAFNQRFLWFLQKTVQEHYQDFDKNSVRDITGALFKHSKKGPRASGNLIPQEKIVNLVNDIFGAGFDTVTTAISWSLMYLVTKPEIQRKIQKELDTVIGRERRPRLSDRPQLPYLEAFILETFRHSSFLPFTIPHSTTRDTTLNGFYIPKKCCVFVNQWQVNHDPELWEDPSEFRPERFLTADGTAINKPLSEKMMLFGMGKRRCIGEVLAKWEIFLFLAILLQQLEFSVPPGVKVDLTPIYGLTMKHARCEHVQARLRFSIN

[8] = target: T2, Corticotropin-releasing factor receptor 2/Corticotropin-releasing factor-binding protein (Homo sapiens, UniProt P24387+Q13324); assay: activators of CRF receptor 2 with binding protein – uHTS hits, confirmation (AID 602473); assay type: functional; details: read-out: EC50_Mean
T2 sequence (Q13324 whole entry): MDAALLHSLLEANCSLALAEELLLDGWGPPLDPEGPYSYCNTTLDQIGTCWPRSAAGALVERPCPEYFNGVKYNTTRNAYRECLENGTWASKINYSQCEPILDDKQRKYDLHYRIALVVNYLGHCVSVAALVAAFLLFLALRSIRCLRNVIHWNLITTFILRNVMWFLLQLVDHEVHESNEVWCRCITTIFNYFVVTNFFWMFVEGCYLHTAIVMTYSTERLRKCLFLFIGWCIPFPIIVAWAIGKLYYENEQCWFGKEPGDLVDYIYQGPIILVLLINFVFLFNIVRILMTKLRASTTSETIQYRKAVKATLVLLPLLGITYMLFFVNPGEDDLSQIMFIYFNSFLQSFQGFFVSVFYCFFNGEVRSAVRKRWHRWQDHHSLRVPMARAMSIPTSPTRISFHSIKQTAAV
T2 sequence (P24387 whole entry): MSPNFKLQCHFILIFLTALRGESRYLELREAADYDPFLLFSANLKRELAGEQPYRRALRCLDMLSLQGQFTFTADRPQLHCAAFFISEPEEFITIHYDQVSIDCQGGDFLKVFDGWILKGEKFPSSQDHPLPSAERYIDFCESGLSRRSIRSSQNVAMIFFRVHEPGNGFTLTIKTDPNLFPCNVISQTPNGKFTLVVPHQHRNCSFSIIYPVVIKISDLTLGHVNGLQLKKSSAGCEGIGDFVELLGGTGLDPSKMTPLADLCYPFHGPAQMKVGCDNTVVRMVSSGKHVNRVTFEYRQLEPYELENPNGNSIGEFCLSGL

Cytochrome P450 3A4, sequence (P08684 whole entry): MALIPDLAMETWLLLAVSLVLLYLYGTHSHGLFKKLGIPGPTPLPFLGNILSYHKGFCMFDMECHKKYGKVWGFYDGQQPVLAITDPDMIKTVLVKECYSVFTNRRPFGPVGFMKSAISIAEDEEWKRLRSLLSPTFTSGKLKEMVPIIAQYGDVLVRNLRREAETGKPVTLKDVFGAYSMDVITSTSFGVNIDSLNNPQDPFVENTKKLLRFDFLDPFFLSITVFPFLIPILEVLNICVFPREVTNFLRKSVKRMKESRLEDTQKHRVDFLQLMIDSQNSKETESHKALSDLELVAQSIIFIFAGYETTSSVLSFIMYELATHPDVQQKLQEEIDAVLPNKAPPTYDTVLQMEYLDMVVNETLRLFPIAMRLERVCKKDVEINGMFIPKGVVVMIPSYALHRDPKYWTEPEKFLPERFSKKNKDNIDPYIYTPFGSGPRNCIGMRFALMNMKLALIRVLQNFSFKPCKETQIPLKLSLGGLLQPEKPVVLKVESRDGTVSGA

Cc1nn(-c2ccc3ccccc3c2)c(=O)c2ccccc12
EC50 [1]: 0.213 µM (active) | EC50 [2]: < 0.1 µM (active) | EC50 [3]: 29.7 µM (active)

Nc1c(-c2ccccc2)cnn1-c1cccc(C(F)(F)F)c1
EC50 [1]: 56.7 µM (active) | EC50 [2]: 0.538 µM (active) | EC50 [3]: 8 µM (active)

Cc1cc(N/C=C\C(=O)c2ccc(Cl)c(Cl)c2)no1
EC50 [1]: 15 µM (active) | EC50 [2]: 2.53 µM (active) | EC50 [3]: > 120 µM (not active)

Cc1ccc(NC2CCCN(C(=O)CSc3ccncc3)C2)cc1C (centres undefined)
EC50 [4]: 0.294 µM (active) | EC50 [5]: > 60 µM (not active)

Cc1nc(-c2ccncc2)nc(NCCNc2ncccc2C(F)(F)F)c1Cl
EC50 [4]: 0.364 µM (active) | EC50 [5]: > 60 µM (not active)

Clc1ccc(CSc2nnc(-c3ccncc3)s2)cc1
EC50 [4]: 2.14 µM (active) | EC50 [5]: 26.3 µM (active)

O=C1OC(c2ccccc2)=N/C1=C\N1CCCCC1
EC50 [1]: 0.374 µM (active) | EC50 [2]: 0.176 µM (active) | EC50 [3]: > 120 µM (not active)

Cc1cccc(CSc2nc3c(cc2C#N)CN(C)CC3)c1
EC50 [4]: 0.156 µM (active) | EC50 [5]: > 30 µM (not active)

CO[C@@H]1COC(=O)C/C=C\[C@@H](C)COC(=O)[C@H](Cc2ccccc2)NC(=O)C/C=C\[C@H]1C
AC50 [6]: 1.58 µM (inconclusive)

CCOc1ccc(Nc2ncnc3c2nnn3Cc2ccccc2)cc1
EC50 [1]: 18.8 µM (active) | EC50 [2]: 17.7 µM (active) | EC50 [3]: 30.9 µM (active)

O=[N+]([O-])c1cccc(-c2cn(-c3ccccc3)c(S)n2)c1
EC50 [1]: > 120 µM (not active) | EC50 [2]: 5.64 µM (active) | EC50 [3]: > 120 µM (not active)

Cc1ccc2c(c1)/C(=N/C1CCCCC1)c1cc3ccccc3nc1-2
EC50 [1]: 37.2 µM (active) | EC50 [2]: 14.9 µM (active) | EC50 [3]: 0.408 µM (active)

C=CCN1C(=O)NC(=O)/C(=C/c2cccn2C)C1=O
AC50 [7]: 15.8 µM (inconclusive)

c1cncc(-c2nc(NCc3ccc4c(c3)OCO4)c3ccccc3n2)c1
EC50 [4]: 0.921 µM (active) | EC50 [5]: > 30 µM (not active)

O=C(Nc1ccc(SC(F)F)cc1)c1ccc2c(=O)n3c(nc2c1)CCC3
EC50 [8]: 1.4 µM (active)

Cc1cccc2sc(N(CCN(C)C)C(=O)C3CCN(S(=O)(=O)c4cccs4)CC3)nc12
EC50 [4]: 0.24 µM (active) | EC50 [5]: > 60 µM (not active)

Cc1ccc(Cl)cc1N1CCN(CC(=O)Nc2ccc(CN3CCCCC3)cc2)CC1
EC50 [4]: 1.31 µM (active) | EC50 [5]: > 60 µM (not active)

CN1CCN(CCCc2c3c(cc4c2CCC4)CCC3)CC1
EC50 [4]: 0.601 µM (active) | EC50 [5]: > 60 µM (not active)

Cc1[nH]c2ccc(-c3nnc(SCC(=O)N4CCCc5ccccc54)o3)cc2c1C
EC50 [4]: 0.782 µM (active) | EC50 [5]: > 60 µM (not active)

Oc1ccc2c3c1O[C@H]1c4oc5ccccc5c4C[C@]4(O)[C@H](C2)N(CC2CC2)CC[C@@]314
AC50 [6]: 15.8 µM (inconclusive)

CO[C@@H]1COC(=O)[C@H](COCc2ccccc2)NC(=O)C/C=C\[C@@H](C)[C@H](OC)COC(=O)[C@@H](C)NC(=O)C/C=C\[C@H]1C
AC50 [6]: 3.16 µM (inconclusive)

COc1ccc(CNN2CCCCC2C(=O)Nc2ccc(OC)c(OCC(C)C)c2)cc1OC (centres undefined)
EC50 [4]: > 60 µM (not active) | EC50 [5]: > 60 µM (not active)

Cc1nc2c(ccc3nc(NC(=O)c4ccc5c(c4)OCCO5)sc32)s1
EC50 [4]: 3.07 µM (active) | EC50 [5]: > 30 µM (not active)

O=C(C[n+]1c2n(c3ccc(C(F)(F)F)cc31)CCCCC2)c1ccc2c(c1)OCCO2
EC50 [4]: 1.3 µM (active) | EC50 [5]: > 60 µM (not active)

CN(C(=O)c1ccc(S(=O)(=O)NC2CCCC2)cc1)C1CCCCC1
EC50 [8]: > 53 µM (inactive)

O=C(CSc1nnc(-c2ccc(F)cc2)c2ccccc12)Nc1cccc(Cl)c1
EC50 [4]: 2.16 µM (active) | EC50 [5]: > 30 µM (not active)

O[C@@H](c1cc(-c2ccccc2)nc2c1ccc1ccccc12)[C@@H]1CCCCN1
AC50 [7]: 5.01 µM (inconclusive)
